Where “and” joins values, the source holds several entries; their conditions need not be identical. Equal values may be shown once.
Conditions: [M+H-H2O]+; instrument: TW; calibrated with polyalanine and drug standards
In the case of `NC[C@H](O)c1ccc(O)c(O)c1` [NOREPINEPHRINE], the “collision cross section (N2)” value is reported as 132.6 Å².

Same assay, conditions: [M+H]+; instrument: TW; calibrated with polyalanine and drug standards
In the case of `CCC(C)C(=O)O[C@@H]1C[C@@]2(C)[C@H](c3ccoc3)OC(=O)CC23OC2(C)OC34[C@H](OC(=O)C(C)C)[C@@]3(O)[C@@H](OC(=O)C5(C)OC5C)[C@@]5(C)C[C@]3(O)[C@@](C)([C@H]5CC(=O)OC)C14O2` (stereo partly specified) [ENTANDROPHRAGMIN], the “collision cross section (N2)” value is reported as 259.8 Å². With `COc1ccc(C(=O)/C=C/c2ccccc2)cc1` [4'-METHOXYCHALCONE] the “collision cross section (N2)” value was 153.8 Å². For `COc1cc(OC)c2c(OC)c(-c3ccc4c(c3)OCO4)c(=O)oc2c1` [DERRUSNIN], the “collision cross section (N2)” value was 176.7 Å². With `CCC(C)C(NC)C(=O)O` (stereo unspecified) [N-METHYLISOLEUCINE] the “collision cross section (N2)” value was 130.6 Å². For `CCN1CCCC1CNC(=O)c1cc(S(N)(=O)=O)ccc1OC` (stereo unspecified) [SULPIRIDE], the “collision cross section (N2)” value was 183.3 Å². For `COc1cc(O)c(C)c(O)c1` [2,6-DIHYDROXY-4-METHOXYTOLUENE], the “collision cross section (N2)” value was 127.1 Å². With `O=c1c(O)c(-c2ccc(O)c(O)c2)oc2cc(O)cc(O)c12` [QUERCETIN] the “collision cross section (N2)” value was 163.4 Å². With `CN1CCCN=C1/C=C/c1cccc(O)c1` [OXANTEL] the “collision cross section (N2)” value was 152.6 Å². In the case of `O=C1C=CC2=C3c4cc(O)c(O)cc4CC3(O)COC2=C1` (stereo unspecified) [BRAZILEIN], the “collision cross section (N2)” value is reported as 159.9 Å². With `O=C1C(CCS(=O)c2ccccc2)C(=O)N(c2ccccc2)N1c1ccccc1` (stereo unspecified) [SULFINPYRAZONE] the “collision cross section (N2)” value was 193.5 Å². In the case of `c1ccc(C2CN3CCSC3=N2)cc1` (stereo unspecified) [TETRAMIZOLE], the “collision cross section (N2)” value is reported as 144 Å². In the case of `COc1ccc(-c2oc3c(CC=C(C)C)c(O[C@@H]4O[C@H](CO)[C@@H](O)[C@H](O)[C@H]4O)cc(O)c3c(=O)c2O[C@@H]2O[C@@H](C)[C@H](O)[C@@H](O)[C@H]2O)cc1` [ICARIIN], the “collision cross section (N2)” value is reported as 260.8 Å². For `O=C1CCc2ccc(OCCCCN3CCN(c4cccc(Cl)c4Cl)CC3)cc2N1` [ARIPIPRAZOLE], the “collision cross section (N2)” value was 203.5 Å². With `CC1=C2C(O)C(=O)OC3CC4C(C)(C)C(=O)C=C[C@]4(C)C(CC1)[C@]23C` (stereo partly specified) [MEROGEDUNIN] the “collision cross section (N2)” value was 179.8 Å². In the case of `CC(C)CCC[C@@H](C)[C@H]1CC[C@H]2[C@@H]3C=CC4=CC(=O)CC[C@]4(C)[C@H]3CC[C@]12C` [CHOLESTA-4,6-DIEN-3-ONE], the “collision cross section (N2)” value is reported as 208.3 Å². In the case of `O=c1c2cc(O)c(O)cc2oc2cc(O)c([C@@H]3O[C@H](CO)[C@@H](O)[C@H](O)[C@H]3O)c(O)c12` [MANGIFERIN], the “collision cross section (N2)” value is reported as 189.8 Å². In the case of `Nc1[nH]c(=O)ncc1F` [FLUCYTOSINE], the “collision cross section (N2)” value is reported as 118.4 Å². For `COc1ccc(-c2oc3cc(OC)c(OC)c(OC)c3c(=O)c2OC)cc1` [3,4',5,6,7-PENTAMETHOXYFLAVONE], the “collision cross section (N2)” value was 181.9 Å². For `COc1ccc(/C=C/C(=O)c2ccc(O)cc2O)cc1` [2',4'-DIHYDROXY-4-METHOXYCHALCONE], the “collision cross section (N2)” value was 162.2 Å². For `CC(=O)O[C@@H]1CC2C(C)(CC[C@H](O)C2(C)C)C2CC[C@]3(C)C(=CC(=O)O[C@H]3c3ccoc3)C21C` (stereo partly drawn) [3beta-HYDROXYDEOXODIHYDRODEOXYGEDUNIN], the “collision cross section (N2)” value was 207.1 Å². With `CCN(CC)CCNC(=O)COc1ccc(OC)cc1` [MEFEXAMIDE] the “collision cross section (N2)” value was 171.2 Å². With `CC(=O)N[C@@H](Cc1c[nH]c2ccccc12)C(=O)O` [ACETYLTRYPTOPHAN] the “collision cross section (N2)” value was 152.3 Å². With `O=C(O)/C=C/C=C/c1ccc2c(c1)OCO2` [PIPERIC ACID] the “collision cross section (N2)” value was 138.6 Å². For `CC1CC2C3CCC4=CC(=O)C=CC4(C)C3(F)C(O)CC2(C)C1C(=O)CO` (stereo unspecified) [DESOXYMETASONE], the “collision cross section (N2)” value was 186.4 Å². With `CCc1nc(N)nc(N)c1-c1ccc(Cl)cc1` [PYRIMETHAMINE] the “collision cross section (N2)” value was 155.8 Å². With `N[C@@H](CCC(=O)N[C@@H](CS)C(=O)NCC(=O)O)C(=O)O` [GLUTATHIONE] the “collision cross section (N2)” value was 165.7 Å². In the case of `COc1ccc(-c2oc3ccccc3c(=O)c2OC)cc1` [3,4'-DIMETHOXYFLAVONE], the “collision cross section (N2)” value is reported as 159.1 Å². In the case of `c1cc2c(cc1[C@H]1OC[C@H]3[C@@H]1CO[C@H]3c1ccc3c(c1)OCO3)OCO2` [ASARININ (-)], the “collision cross section (N2)” value is reported as 171 Å². For `CC(=O)NCCc1ccc(O)c(-c2c(O)c(O)c3c(c2O)C(=O)c2c(cc(O)c(C(=O)O)c2C(=O)O)C3=O)c1` [LACCAIC ACID A], the “collision cross section (N2)” value was 218.5 Å². In the case of `COc1ccc(-c2coc3c(O)c(OC)ccc3c2=O)cc1` [RETUSIN 7-METHYL ETHER], the “collision cross section (N2)” value is reported as 164.1 Å². With `COC(=O)Nc1nc2ccc(C(=O)c3ccccc3)cc2[nH]1` [MEBENDAZOLE] the “collision cross section (N2)” value was 171.2 Å². With `Oc1c(Cl)cc(Cl)c2cccnc12` [CHLOROXINE] the “collision cross section (N2)” value was 134.3 Å². For `CC1(C)OC(=O)C(OCC2CC2)=C1c1ccc(S(C)(=O)=O)cc1` [FIROCOXIB], the “collision cross section (N2)” value was 181.1 Å². In the case of `CCN1C[C@]2(OC(=O)c3ccccc3NC(C)=O)CC[C@H](OC)C34C1C(C[C@@H]32)[C@@]1(O)C[C@H](OC)[C@H]2C[C@@H]4[C@]1(O)[C@H]2OC` [LAPPACONITINE], the “collision cross section (N2)” value is reported as 232.5 Å². With `CCOC(=O)c1ncn2c1CN(C)C(=O)c1cc(F)ccc1-2` [FUMAZENIL] the “collision cross section (N2)” value was 165.6 Å². For `COc1cc(-c2coc3cc(OCc4ccccc4)c(OC)c(O)c3c2=O)cc(O)c1OC` [IRIGENIN, 7-BENZYL ETHER], the “collision cross section (N2)” value was 198.6 Å² and 212.4 Å². In the case of `O=C(/C=C/c1ccccc1)c1ccc(O[C@@H]2O[C@H](CO)[C@@H](O)[C@H](O)[C@H]2O)cc1O` [2',4'-DIHYDROXYCHALCONE 4'-GLUCOSIDE], the “collision cross section (N2)” value is reported as 200.6 Å². In the case of `COc1ccc(-c2coc3cc(O)ccc3c2=O)c(OC)c1` [2'-METHOXYFORMONETIN], the “collision cross section (N2)” value is reported as 164.6 Å². With `COc1ccc(-c2cc(=O)c3c(OC(C)=O)cc(OC(C)=O)cc3o2)cc1` [ACACETIN DIACETATE] the “collision cross section (N2)” value was 184.8 Å². With `COc1ccc2c(c1)c(CC(=O)O)c(C)n2C(=O)c1ccc(Cl)cc1` [INDOMETHACIN] the “collision cross section (N2)” value was 179 Å². For `CCn1cc(C(=O)O)c(=O)c2cnc(N3CCCC3)nc21` [PIROMIDIC ACID], the “collision cross section (N2)” value was 161.1 Å². With `Cc1cccc(C)c1NC1=NCCCS1` [XYLAZINE] the “collision cross section (N2)” value was 147.8 Å². For `CC(=O)OCC(=O)[C@H]1CC[C@H]2[C@@H]3CCC4=CC(=O)CC[C@]4(C)[C@H]3CC[C@]12C` [DESOXYCORTICOSTERONE ACETATE], the “collision cross section (N2)” value was 193.8 Å². With `NCCCNCCSP(=O)(O)O` [AMIFOSTINE] the “collision cross section (N2)” value was 146.9 Å². For `COc1ccc(-c2cc(=O)c3c(OC)c(OC)c(OC)c(OC)c3o2)cc1OC` [NOBILETIN], the “collision cross section (N2)” value was 191.3 Å². With `COC(=O)NC(=S)Nc1ccccc1NC(=S)NC(=O)OC` [DIMETHYL 4,4-o-PHENYLENE-BIS (3-THIOPHANATE)] the “collision cross section (N2)” value was 173.3 Å². In the case of `COc1ccc(-c2coc3cc(OC)ccc3c2=O)cc1` [7,4'-DIMETHOXYISOFLAVONE], the “collision cross section (N2)” value is reported as 160.3 Å². For `CCN(CC)C(=O)c1ccc(O)c(OC)c1` [ETHAMIVAN], the “collision cross section (N2)” value was 149 Å². For `CC(C)c1c(O)c(-c2cc3c(c(C(C)C)c2O)CCC2C(C)(C)CCC[C@]32C)cc2c1CCC1C(C)(C)CCC[C@]21C` (stereo partly specified) [PODOTOTARIN], the “collision cross section (N2)” value was 255.6 Å². For `COCC1=C(C(=O)OC(C)OC(=O)OC(C)C)N2C(=O)[C@@H](NC(=O)/C(=N\OC)c3csc(N)n3)[C@H]2SC1` (stereo partly specified) [CEFPODOXIME PROXETIL], the “collision cross section (N2)” value was 235.4 Å² and 228.3 Å². In the case of `COC(=O)C[C@H]1C(C)(C)[C@H](OC(C)=O)[C@@H]2CC3=C4CC(=O)O[C@@H](c5ccoc5)[C@]4(C)CC[C@@H]3C1(C)C2=O` [FISSINOLIDE], the “collision cross section (N2)” value is reported as 213.3 Å². With `CC(=O)c1ccc(S(=O)(=O)NC(=O)NC2CCCCC2)cc1` [ACETOHEXAMIDE] the “collision cross section (N2)” value was 178.2 Å². For `CC(N=C(NC#N)Nc1ccncc1)C(C)(C)C` (stereo unspecified) [PINACIDIL], the “collision cross section (N2)” value was 165.2 Å². With `CC(C)=CCc1c2c(c3occ(-c4ccc(O)c(O)c4)c(=O)c3c1O)C=CC(C)(C)O2` [POMIFERIN] the “collision cross section (N2)” value was 205.8 Å². In the case of `COc1ccc2c(=O)c(CC(=O)O)coc2c1` [ANHYDROBRAZILIC ACID], the “collision cross section (N2)” value is reported as 143.1 Å². With `COc1ccc(-c2cc(=O)c3c(O)cc(OC)c(OC)c3o2)c(OC)c1` [5-HYDROXY-2',4',7,8-TETRAMETHOXYFLAVONE] the “collision cross section (N2)” value was 182 Å². In the case of `COc1cc2c(cc1OC)C(C)NCC2` (stereo unspecified) [SALSOLIDINE], the “collision cross section (N2)” value is reported as 150.9 Å². In the case of `OCCN(CCO)c1nc(N2CCCCC2)c2nc(N(CCO)CCO)nc(N3CCCCC3)c2n1` [DIPYRIDAMOLE], the “collision cross section (N2)” value is reported as 223.9 Å².

Same assay, conditions: [M+Na]+; instrument: TW; calibrated with polyalanine and drug standards
In the case of `COC(C)(C)CCC[C@H](C)C/C=C/C(C)=C/C(=O)OC(C)C` [METHOPRENE (S)], the “collision cross section (N2)” value is reported as 187 Å². For `C[C@H](CCC(=O)O)[C@H]1CC[C@H]2[C@@H]3[C@H](O)C[C@@H]4C[C@H](O)CC[C@]4(C)[C@H]3C[C@H](O)[C@]12C` [CHOLIC ACID], the “collision cross section (N2)” value was 195.6 Å². In the case of `CCCCCCCCCCCCCCC(C(=O)O)C(O)(CC(=O)OC)C(=O)O` (stereo unspecified) [CAPERATIC ACID], the “collision cross section (N2)” value is reported as 211 Å². In the case of `COC(=O)C[C@H]1C(C)(C)[C@@H](O)[C@@H]2CC3=C4CC(O)O[C@@H](c5ccoc5)[C@]4(C)CCC3[C@@]1(C)C2=O` (stereo partly drawn) [3,16-DIDEOXYMEXICANOLIDE-3beta-DIOL], the “collision cross section (N2)” value is reported as 202.8 Å². In the case of `CCCCCCCCCCCC[C@@H](C(=O)O)[C@H](C)C(=O)O` [ROCCELLIC ACID], the “collision cross section (N2)” value is reported as 186.2 Å². For `C=C[C@@]1(C)CC(=O)[C@@]2(O)[C@](C)(O1)[C@@H](O)[C@@H](O)C1C(C)(C)CC[C@H](O)[C@@]12C` (stereo partly specified) [DESACETYLCOLFORSIN], the “collision cross section (N2)” value was 185.6 Å².

Same assay, conditions: [M]+; instrument: TW; calibrated with polyalanine and drug standards
For `O=C1OCCN1/N=C/c1ccc([N+](=O)[O-])o1` [FURAZOLIDONE], the “collision cross section (N2)” value was 144.2 Å².
